Data: PubChem BioAssay (NCI)
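Here, GI50 denotes the concentration required for 50% inhibition of growth. TGI is the concentration that stops growth completely.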

Tests used:
Experiment in all cases: DTP human tumour cell line panel, 384-well format
DU-145 prostate = tested on: DU-145 prostate
CCRF-CEM leukemia = tested on: CCRF-CEM leukemia
NCI-H522 lung = tested on: NCI-H522 lung
HOP-92 NSCLC = tested on: HOP-92 NSCLC
HS 578T breast = tested on: HS 578T breast
SW-620 colon = tested on: SW-620 colon
HCC-2998 colon = tested on: HCC-2998 colon
UO-31 renal = tested on: UO-31 renal
SNB-19 CNS = tested on: SNB-19 CNS
A549 NSCLC = tested on: A549 NSCLC
SK-MEL-28 melanoma = tested on: SK-MEL-28 melanoma
MDA-MB-468 breast = tested on: MDA-MB-468 breast
TK-10 renal = tested on: TK-10 renal
OVCAR-3 ovarian = tested on: OVCAR-3 ovarian
KM12 colon = tested on: KM12 colon
IGROV1 ovarian = tested on: IGROV1 ovarian
NCI-H322M lung = tested on: NCI-H322M lung
CAKI-1 renal = tested on: CAKI-1 renal
HCT-15 colon = tested on: HCT-15 colon
HL-60(TB) leukemia = tested on: HL-60(TB) leukemia
M14 melanoma = tested on: M14 melanoma
HT29 colon = tested on: HT29 colon
SK-MEL-5 melanoma = tested on: SK-MEL-5 melanoma
A498 renal = tested on: A498 renal
HCT-116 colon = tested on: HCT-116 colon
SNB-75 CNS = tested on: SNB-75 CNS
OVCAR-4 ovarian = tested on: OVCAR-4 ovarian
UACC-62 melanoma = tested on: UACC-62 melanoma
OVCAR-8 ovarian = tested on: OVCAR-8 ovarian
SF-295 CNS = tested on: SF-295 CNS
EKVX NSCLC = tested on: EKVX NSCLC
MDA-MB-435 melanoma = tested on: MDA-MB-435 melanoma
BT-549 breast = tested on: BT-549 breast
SF-539 CNS = tested on: SF-539 CNS
NCI-H460 NSCLC = tested on: NCI-H460 NSCLC
SR leukemia = tested on: SR leukemia
RPMI-8226 leukemia = tested on: RPMI-8226 leukemia
SF-268 CNS = tested on: SF-268 CNS
HOP-62 NSCLC = tested on: HOP-62 NSCLC
786-0 renal = tested on: 786-0 renal
RXF 393 renal = tested on: RXF 393 renal
U251 glioblastoma = tested on: U251 glioblastoma
MALME-3M melanoma = tested on: MALME-3M melanoma
SN12C renal = tested on: SN12C renal
T-47D breast = tested on: T-47D breast
MDA-MB-231 breast = tested on: MDA-MB-231 breast
NCI-H23 lung = tested on: NCI-H23 lung
ACHN renal = tested on: ACHN renal
PC-3 prostate = tested on: PC-3 prostate
K-562 leukemia = tested on: K-562 leukemia
NCI-H226 lung = tested on: NCI-H226 lung
LOX IMVI melanoma = tested on: LOX IMVI melanoma
COLO 205 colon = tested on: COLO 205 colon
UACC-257 melanoma = tested on: UACC-257 melanoma
NCI/ADR-RES ovarian = tested on: NCI/ADR-RES ovarian
SK-OV-3 ovarian = tested on: SK-OV-3 ovarian
MCF7 breast = tested on: MCF7 breast

CC(C)S(=O)(=O)c1ccccc1Nc1nc(Nc2cccc(NC(=O)CN)c2)ncc1Cl
GI50 (DU-145 prostate): 79.1 nM | TGI (DU-145 prostate): 1710 nM | GI50 (CCRF-CEM leukemia): < 10 nM | TGI (CCRF-CEM leukemia): < 10 nM | GI50 (NCI-H522 lung): 77.1 nM | TGI (NCI-H522 lung): 622 nM | GI50 (HOP-92 NSCLC): 135 nM | TGI (HOP-92 NSCLC): 463 nM | GI50 (HS 578T breast): 45.5 nM | TGI (HS 578T breast): 205 nM | GI50 (SW-620 colon): 29.2 nM | TGI (SW-620 colon): 436 nM | GI50 (HCC-2998 colon): 187 nM | TGI (HCC-2998 colon): 659 nM | GI50 (UO-31 renal): 218 nM | TGI (UO-31 renal): 10700 nM | GI50 (SNB-19 CNS): 141 nM | TGI (SNB-19 CNS): 6120 nM | GI50 (A549 NSCLC): 106 nM | TGI (A549 NSCLC): 7360 nM | GI50 (SK-MEL-28 melanoma): 217 nM | TGI (SK-MEL-28 melanoma): 1290 nM | GI50 (MDA-MB-468 breast): 17.4 nM | TGI (MDA-MB-468 breast): 42 nM | GI50 (TK-10 renal): 185 nM | TGI (TK-10 renal): 2560 nM | GI50 (OVCAR-3 ovarian): 57.1 nM | TGI (OVCAR-3 ovarian): 290 nM | GI50 (KM12 colon): 19.1 nM | TGI (KM12 colon): 474 nM | GI50 (IGROV1 ovarian): 141 nM | TGI (IGROV1 ovarian): 383 nM | GI50 (NCI-H322M lung): 389 nM | TGI (NCI-H322M lung): 1730 nM | GI50 (CAKI-1 renal): 124 nM | TGI (CAKI-1 renal): 866 nM | GI50 (HCT-15 colon): 152 nM | TGI (HCT-15 colon): 1250 nM | GI50 (HL-60(TB) leukemia): < 10 nM | TGI (HL-60(TB) leukemia): < 10 nM | GI50 (M14 melanoma): 17.7 nM | TGI (M14 melanoma): 493 nM | GI50 (HT29 colon): 184 nM | TGI (HT29 colon): 1160 nM | GI50 (SK-MEL-5 melanoma): 56.3 nM | TGI (SK-MEL-5 melanoma): 229 nM | GI50 (A498 renal): 186 nM | TGI (A498 renal): 11400 nM | GI50 (HCT-116 colon): < 10 nM | TGI (HCT-116 colon): 164 nM | GI50 (SNB-75 CNS): 23.8 nM | TGI (SNB-75 CNS): 189 nM | GI50 (OVCAR-4 ovarian): 377 nM | TGI (OVCAR-4 ovarian): 2070 nM | GI50 (UACC-62 melanoma): 34.8 nM | TGI (UACC-62 melanoma): 213 nM | GI50 (OVCAR-8 ovarian): 87.5 nM | TGI (OVCAR-8 ovarian): 308 nM | GI50 (SF-295 CNS): 89.1 nM | TGI (SF-295 CNS): 11400 nM | GI50 (EKVX NSCLC): 150 nM | TGI (EKVX NSCLC): 1710 nM | GI50 (MDA-MB-435 melanoma): 168 nM | TGI (MDA-MB-435 melanoma): 1300 nM | GI50 (BT-549 breast): 49.5 nM | TGI (BT-549 breast): 193 nM | GI50 (SF-539 CNS): 47.2 nM | TGI (SF-539 CNS): 216 nM | GI50 (NCI-H460 NSCLC): < 10 nM | TGI (NCI-H460 NSCLC): 335 nM | GI50 (SR leukemia): < 10 nM | TGI (SR leukemia): < 10 nM | GI50 (RPMI-8226 leukemia): 20.3 nM | TGI (RPMI-8226 leukemia): 60.7 nM | GI50 (SF-268 CNS): 30.7 nM | TGI (SF-268 CNS): 223 nM | GI50 (HOP-62 NSCLC): 39.1 nM | TGI (HOP-62 NSCLC): 680 nM | GI50 ([…]-0 renal): 182 nM | TGI (786-0 renal): 2080 nM | GI50 (RXF 393 renal): 21.4 nM | TGI (RXF 393 renal): 167 nM | GI50 (U251 glioblastoma): 193 nM | TGI (U251 glioblastoma): 1600 nM | GI50 (MALME-3M melanoma): 399 nM | TGI (MALME-3M melanoma): 1560 nM | GI50 (SN12C renal): 149 nM | TGI (SN12C renal): 518 nM | GI50 (T-47D breast): 480 nM | TGI (T-47D breast): 3320 nM | GI50 (MDA-MB-231 breast): 93.2 nM | TGI (MDA-MB-231 breast): 445 nM | GI50 (NCI-H23 lung): 107 nM | TGI (NCI-H23 lung): 247 nM | GI50 (ACHN renal): 200 nM | TGI (ACHN renal): 14700 nM | GI50 (PC-3 prostate): 237 nM | TGI (PC-3 prostate): 1490 nM | GI50 (K-562 leukemia): 25 nM | TGI (K-562 leukemia): 242 nM | GI50 (NCI-H226 lung): 49.5 nM | TGI (NCI-H226 lung): 354 nM | GI50 (LOX IMVI melanoma): 25.8 nM | TGI (LOX IMVI melanoma): 180 nM | GI50 (COLO 205 colon): 19.4 nM | TGI (COLO 205 colon): 128 nM | GI50 (UACC-257 melanoma): 324 nM | TGI (UACC-257 melanoma): 1440 nM | GI50 (NCI/ADR-RES ovarian): 72.7 nM | TGI (NCI/ADR-RES ovarian): 1140 nM | GI50 (SK-OV-3 ovarian): 290 nM | TGI (SK-OV-3 ovarian): 7900 nM | GI50 (MCF7 breast): 30.1 nM | TGI (MCF7 breast): 685 nM
